± gives the standard deviation of the reports.
In order of falling glass transition temperature:
1. *c1ccc(S(=O)(=O)c2ccc(-n3nc(-c4ccccc4)c4ccc(S(=O)(=O)c5ccc6c(-c7ccccc7)nn(*)c(=O)c6c5)cc4c3=O)cc2)cc1 (repeat unit)  422.00 °C
2. *C(=O)Nc1cc(NC(=O)c2ccc3c(c2)C(=O)N(c2cccc(N4C(=O)c5ccc(*)cc5C4=O)c2)C3=O)cc(-c2nc3ccccc3[nH]2)c1 (repeat unit)  361.00 °C
3. *c1cc(C(c2ccc(O)c(-n3c(=O)c4cc5c(=O)n(*)c(=O)c5cc4c3=O)c2)(C(F)(F)F)C(F)(F)F)ccc1O (repeat unit)  350.00 °C
4. *C(=O)Nc1ccc(-c2ccc(NC(=O)c3ccc4c(c3)C(=O)N(c3ccc(Oc5ccc(N6C(=O)c7ccc(*)cc7C6=O)cc5)cc3)C4=O)cc2)cc1 (repeat unit)  315.00 °C
5. *Nc1cccc(NC(=O)c2cc(NC(=O)c3ccccc3)cc(C(*)=O)c2)c1 (repeat unit)  300.00 °C
6. *c1cccc(N2C(=O)c3ccc(Oc4c(C)cc(-c5cc(C)c(Oc6ccc7c(c6)C(=O)N(*)C7=O)c(C)c5)cc4C)cc3C2=O)c1 (repeat unit)  295.00 °C
7. *c1ccc2oc3ccc(S(=O)(=O)c4ccc(Oc5ccc(S(*)(=O)=O)cc5)cc4)cc3c2c1 (repeat unit)  290.00 °C
8. *c1c(C)cc(C(c2cc(C(F)(F)F)cc(C(F)(F)F)c2)c2cc(C)c(N3C(=O)c4ccc(Oc5ccc6c(c5)C(=O)N(*)C6=O)cc4C3=O)c(C)c2)cc1C (repeat unit)  281.90 °C
9. *OC(=O)c1cccc(C(=O)Oc2ccc3c(c2)Oc2cc(*)ccc2C32OC(=O)c3ccccc32)c1 (repeat unit)  276.00 °C
10. *C(=O)c1ccc2c(c1)C(=O)N(c1cccc(P(=O)(c3ccccc3)c3cccc(N4C(=O)c5ccc(*)cc5C4=O)c3)c1)C2=O (repeat unit)  273.00 °C
11. *c1ccc(C(c2ccc(-c3nc4ccc(-c5ccc6nc(*)[nH]c6c5)cc4[nH]3)cc2)(C(F)(F)F)C(F)(F)F)cc1 (repeat unit)  269.00 °C
12. *CC(=O)Nc1ccc(Cc2ccc(NC(=O)c3ccc4c(c3)C(=O)N(*)C4=O)cc2)cc1 (repeat unit)  266.00 °C
13. *Oc1ccc(C(C)(C)c2ccc(OC(=O)c3ccc4c(c3)C(C)(c3ccc(C(*)=O)cc3)CC4(C)C)cc2)cc1 (repeat unit)  265.00 °C
14. *c1ccc(Oc2ccc(NC(=O)CN3C(=O)c4ccc(C(c5ccc6c(c5)C(=O)N(CC(=O)Nc5ccc(Oc7ccc(-c8nnc(*)o8)cc7)cc5)C6=O)(C(F)(F)F)C(F)(F)F)cc4C3=O)cc2)cc1 (repeat unit)  263.00 °C
15. *C(=O)Nc1cccc(NC(=O)/C=C/c2cccc(N3C(=O)c4ccc(*)cc4C3=O)c2)c1 (repeat unit)  257.50 °C
16. *C(=O)c1ccc(Oc2c(C)cc(-c3cc(C)c(Oc4ccc(C(=O)c5ccc6nc(*)ccc6c5)cc4)c(C)c3C)c(C)c2C)cc1 (repeat unit)  250.00 °C
17. *c1ccc(Oc2ccc(S(=O)(=O)c3ccc(Oc4ccc(-c5cc(*)n(-c6ccccc6)n5)cc4)cc3)cc2)cc1 (repeat unit)  235.00 °C
18. *c1ccc(Sc2ccc(Sc3ccc(Sc4ccc(N5C(=O)c6ccc(-c7cccc8c7C(=O)N(*)C8=O)cc6C5=O)cc4)cc3)cc2)cc1 (repeat unit)  226.70 °C
19. *CC(=O)Nc1ccc(Oc2cccc(NC(=O)CN3C(=O)c4ccc(C(=O)c5ccc6c(c5)C(=O)N(*)C6=O)cc4C3=O)c2)cc1 (repeat unit)  226.00 °C
20. *c1ccc(Oc2ccc(Oc3ccc(Oc4ccc(-c5cnc6ccc(-c7ccc8ncc(*)nc8c7)cc6n5)cc4)cc3)cc2)cc1 (repeat unit)  216.00 °C
21. *CCN(CCN1C(=O)c2ccc(C(c3ccc4c(c3)C(=O)N(*)C4=O)(C(F)(F)F)C(F)(F)F)cc2C1=O)c1ccc(/N=N/c2ccc([N+](=O)[O-])cc2C)cc1 (repeat unit)  205.00 °C
22. *CC(*)(C)c1ccc(C(O)C(F)(F)F)cc1 (repeat unit)  199.00 °C
23. *c1ccc(Oc2ccc(Sc3ccc(Oc4ccc(N5C(=O)c6ccc(Oc7ccc(Sc8ccc(Oc9ccc%10c(c9)C(=O)N(*)C%10=O)cc8)cc7)cc6C5=O)cc4)cc3)cc2)cc1 (repeat unit)  186.00 °C
24. *Oc1ccc(C(c2ccccc2)c2ccc(OC(*)=S)cc2)cc1 (repeat unit)  179.00 °C
25. *Oc1ccc(/N=C(\c2ccccc2)c2ccc(Oc3ccc(C(c4ccccc4)(c4ccccc4)c4ccc(Oc5ccc(/C(=N/c6ccc(*)cc6)c6ccccc6)cc5)cc4)cc3)cc2)cc1 (repeat unit)  177.00 °C
26. *C(CC(C)C)C(=O)Nc1ccc(Oc2ccc(NC(=O)NCC3(C)CC(NC(=O)Nc4ccc(Oc5ccc(NC(=O)C(CC(C)C)n6c(=O)c7cc8c(=O)n(*)c(=O)c8cc7c6=O)cc5)cc4)CC(C)(C)C3)cc2)cc1 (repeat unit)  147.50 °C
27. *CC(*)(C#N)C(=O)OC (repeat unit)  147.50 °C
28. *CCCCCCCCCCNC(=O)c1ccc(Cc2ccc(C(=O)N*)cc2)cc1 (repeat unit)  140.00 °C
29. *CC(O)COc1ccc(C(C)(C)c2ccc(OCC(O)COc3cccc(NC(=O)c4cccc(C(=O)Nc5cccc(O*)c5)c4)c3)cc2)cc1 (repeat unit)  133.00 °C
30. *c1ccc2c(c1)Sc1cc(-c3sc4cc(*)sc4c3CCCCC)ccc1N2CCCCCCCCCC (repeat unit)  131.00 °C
31. *CCCCOc1ccc(-c2ccc(O*)c3ccccc23)c2ccccc12 (repeat unit)  130.00 °C
32. *CC(*)(C)C(=O)Oc1ccc(C(=O)/C=C/c2ccc(Cl)cc2)cc1 (repeat unit)  127.00 °C
33. *CCC(C)C(C)CCNC(=O)c1cccc(C(=O)N*)c1 (repeat unit)  125.00 °C
34. *CC(*)(C)C(=O)Oc1cccc(C)c1C (repeat unit)  120.00 °C
35. *CC(*)C(=O)N1CCCCC1 (repeat unit)  108.00 °C
36. *C1=C(c2ccc(-c3ccc4c(c3)C(CCCCCC)(CCCCCC)c3cc(-c5ccc(*)cc5)ccc3-4)cc2)C(=O)N(CCCCCCCCCCCC)C1=O (repeat unit)  100.00 °C
37. *CCOCCOCCOc1ccc(/C=C/c2cc(OC)c(/C=C/c3ccc(O*)c4ccccc34)cc2OC)c2ccccc12 (repeat unit)  79.50 °C
38. *CC(*)C(=O)Oc1ccccc1C(C)(C)C (repeat unit)  72.00 °C
39. *CCCCCCCCOc1ccc(/C=C2\CCC/C(=C\c3ccc(O*)c(OC)c3)C2=O)cc1OC (repeat unit)  72.00 °C
40. *CC(*)c1ccc(C(=O)CCCC)cc1 (repeat unit)  70.00 °C
41. */C=C/c1cc(CCCCCCCCCC)c(/C=C/c2ccc(-c3ccc(*)nc3)cn2)cc1CCCCCCCCCC (repeat unit)  68.00 °C
42. *CC(*)C(=O)OCCCCCCCCCCCCOc1ccc(C(=O)Oc2ccc(-c3cccc(OC(=O)c4ccc(OC(=O)c5ccc(OCCCCCCCCCCCC)cc5)cc4)c3)cc2)cc1 (repeat unit)  67.00 °C
43. *CC(*)(CC(=O)OCC)C(=O)OCC (repeat unit)  65.50 °C
44. *O[Si](*)(C)CCCOc1ccc(C(=O)Oc2ccc(-c3ccc(OC(=O)c4cc(OCC(C)CC)c(OCC(C)CC)c(OCC(C)CC)c4)cc3)cc2)cc1 (repeat unit)  60.00 °C
45. *CCCCCOC(=O)c1ccc2cc(C(=O)O*)ccc2c1 (repeat unit)  58.50 °C
46. *CCCCCC(=O)O* (repeat unit) [Poly(caprolactone)]  55.0 ± 78 °C
47. *CC(*)c1ccc([Si](C)(O[Si](C)(C)C)O[Si](C)(C)C)cc1 (repeat unit)  54.00 °C
48. *Oc1ccc(CC(NC(=O)CCc2ccc(OC(=O)COCCOCC(*)=O)cc2)C(=O)OC(C)CC)cc1 (repeat unit)  44.00 °C
49. *O[Si](*)(C)CCCOc1ccc(-c2ccc(OC(=O)CCCCC(=O)OC3CC(C)CCC3C(C)C)cc2)cc1 (repeat unit)  43.30 °C
50. *CC(*)(C)C(=O)OCCCCCCOc1ccc(/N=N/c2ccncc2)cc1 (repeat unit)  42.00 °C
51. *CCCCCCCCCCCNC(=O)CCCCCCCCCCCCCCCCCCC(=O)N* (repeat unit)  29.00 °C
52. *Oc1ccc(CC(NC(=O)Cc2ccc(OC(=O)CCCCCCC(*)=O)cc2)C(=O)OCCCCCC)cc1 (repeat unit)  27.00 °C
53. *CCCCCCOC(=O)C(CCCCCCP(=O)(O)O)C(=O)OCCCCCCOc1ccc(-n2on2-c2ccc(O*)cc2)cc1 (repeat unit)  21.00 °C
54. *CC(*)(C)C(=O)Oc1ccc(/N=N/c2ccc(OCCCCCCCCCCCOC(=O)c3ccc4c(c3)OCCOCCOCCOCCO4)cc2)cc1 (repeat unit)  19.00 °C
55. *CC(*)C(=O)OCCCCCCCCCCCCOC(=O)c1ccc(OC(=O)c2ccc(C#N)cc2)cc1 (repeat unit)  15.00 °C
56. *CC(O*)c1ccco1 (repeat unit)  12.50 °C
57. *CC(*)(C)C(=O)OCCCCC (repeat unit)  10.00 °C
58. *Oc1ccc(CC(NC(=O)CCc2ccc(OC(=O)CCCCCCCCC(*)=O)cc2)C(=O)OCCOCCOCC)cc1 (repeat unit)  2.00 °C
59. *NC(CCC(=O)OC)C(*)=O (repeat unit)  0.00 °C
60. *CCCCCCOC(=O)OCCCCCOC(=O)OCCCCCCOc1ccc(C(=O)c2ccc(O*)cc2)cc1 (repeat unit)  -0.20 °C
61. *CCOCCOCCOCCOC(=O)NCCCCCCNC(=O)O* (repeat unit)  -17.00 °C
62. *CCCC(*)(C)CC (repeat unit)  -23.00 °C
63. *CC(*)(CC(=O)OCCOCCOCCOCCOCCOCCOCCOC)C(=O)OCCOCCOCCOCCOCCOCCOCCOC (repeat unit)  -40.50 °C
64. *ON(C(F)(F)F)C(F)(Cl)C(*)(F)F (repeat unit)  -50.00 °C
65. *O[Si](C)(C)CC(C)(C)COC(=O)c1cccc(C(=O)OCC(C)(C)C[Si](*)(C)C)c1 (repeat unit)  -52.00 °C
